Earlier results as cited in patent publication US8557836B2 (priority 2008, dated 2013).

System: M2 ion channel with mutations at M2 residues 27, 30, 31, and 34
Settings: mutations at M2 residues 27, 30, 31, and 34 in the M2 transmembrane domain; cited from earlier work

C1CCC2(CC1)CCN(C1=NCCN1)CC2 [BL-1743, 3-(4,5-dihydro-1H-imidazol-2-yl)-3-azaspiro[5,5]undecane hydroiodide, reference compound]
resistance to BL-1743 induced by amantadine resistance mutations: complete
